{
  "source": "patent US6767550B1",
  "about": "“Hydroxyapatite based drug delivery implant for cancer treatment” (Berkeley Advanced Biomaterials, Inc., priority 2000, dated 2004)",
  "origin": "cited, not measured here",
  "key": {"[1]": {"conditions": "30 mg/m^2 intravenous bolus dose; 2.5 hours after administration"}, "[2]": {"conditions": "cumulative dose of 700 mg.m^2"}, "[3]": {"conditions": "in vivo"}},
  "data": [
    {"smiles": "COc1cccc2c1C(=O)c1c(O)c3c(c(O)c1C2=O)C[C@@](O)(C(=O)CO)C[C@@H]3O[C@H]1C[C@H](N)[C@H](O)[C@H](C)O1", "note": "[doxorubicin]", "values": [
      {"measurement": "marro drug concentration", "setting": "[1]", "result": 0.52, "unit": "µg/g"},
      {"measurement": "patients experiencing cardiotoxicity", "setting": "[2]", "result": "30-40%"},
      {"measurement": "oral absorption", "setting": "[3]", "result": "poor oral absorption"}
    ]}
  ]
}
